Legend:
[1] = biological target: Peptidyl-prolyl cis-trans isomerase A (Rattus norvegicus) (UniProt P10111); assay: In vitro affinity towards cyclophilin A was determined under competitive ELISA systems using protein-conjugated ligand CsA
[2] = organism: Mus musculus; assay: Immunosuppressive activity by mouse mixed lymphocyte reaction (MLR_M) relative to cyclosporin as 1; type: functional
[3] = Immunosuppressive activity with the help of a reporter gene assay for IL-2 (IL2-RGA) relative to cyclosporin as 1; type: functional

Peptidyl-prolyl cis-trans isomerase A (Rattus norvegicus), sequence (P10111 whole entry): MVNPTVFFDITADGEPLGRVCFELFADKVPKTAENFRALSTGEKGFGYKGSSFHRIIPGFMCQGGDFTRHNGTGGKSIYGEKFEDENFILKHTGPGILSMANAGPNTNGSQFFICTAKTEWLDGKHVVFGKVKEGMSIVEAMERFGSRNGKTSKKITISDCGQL

Relative IC50 [1]	Relative IC50 [2]	Relative IC50 [3]	SMILES
0.9	130	110	C/C=C/C[C@@H](C)[C@@H](O)[C@H]1C(=O)N[C@@H](CC)C(=O)N(C)CC(=O)N(C)[C@@H](CC(C)(C)O)C(=O)N[C@@H](C(C)C)C(=O)N(C)[C@@H](CC(C)C)C(=O)N[C@@H](C)C(=O)N[C@H](C)C(=O)N(C)[C@@H](CC(C)C)C(=O)N(C)[C@@H](CC(C)C)C(=O)N(C)[C@@H](C(C)C)C(=O)N1C
2.1	25	7	C/C=C/C[C@@H](C)[C@@H](O)[C@H]1C(=O)N[C@@H](CC)C(=O)N(C)CC(=O)N(C)[C@@H](CC(C)(C)F)C(=O)N[C@@H](C(C)C)C(=O)N(C)[C@@H](CC(C)C)C(=O)N[C@@H](C)C(=O)N[C@H](C)C(=O)N(C)[C@@H](CC(C)C)C(=O)N(C)[C@@H](CC(C)C)C(=O)N(C)[C@@H](C(C)C)C(=O)N1C
1.2	65	163	C/C=C/C[C@@H](C)[C@@H](O)[C@H]1C(=O)N[C@@H](CC)C(=O)N(C)CC(=O)N(C)[C@@H](CC)C(=O)N[C@@H](C(C)C)C(=O)N(C)[C@@H](CC(C)C)C(=O)N[C@@H](C)C(=O)N[C@H](C)C(=O)N(C)[C@@H](CC(C)C)C(=O)N(C)[C@@H](CC(C)C)C(=O)N(C)C(C(C)C)C(=O)N1C (single isomer, unassigned)
1.9	3.5	9	C/C=C/C[C@@H](C)[C@@H](O)[C@H]1C(=O)N[C@@H](CC)C(=O)N(C)CC(=O)N(C)[C@@H](CCC(C)C)C(=O)N[C@@H](C(C)C)C(=O)N(C)[C@@H](CC(C)C)C(=O)N[C@@H](C)C(=O)N[C@H](C)C(=O)N(C)[C@@H](CC(C)C)C(=O)N(C)[C@@H](CC(C)C)C(=O)N(C)C(C(C)C)C(=O)N1C (single isomer, unassigned)
2.8	5	5.3	C/C=C/C[C@@H](C)[C@@H](O)[C@H]1C(=O)N[C@@H](CC)C(=O)N(C)CC(=O)N(C)[C@@H](CC2CC2)C(=O)N[C@@H](C(C)C)C(=O)N(C)[C@@H](CC(C)C)C(=O)N[C@@H](C)C(=O)N[C@H](C)C(=O)N(C)[C@@H](CC(C)C)C(=O)N(C)[C@@H](CC(C)C)C(=O)N(C)C(C(C)C)C(=O)N1C (single isomer, unassigned)
1.8	1.6	4	C=C(C)C[C@H]1C(=O)N[C@@H](C(C)C)C(=O)N(C)[C@@H](CC(C)C)C(=O)N[C@@H](C)C(=O)N[C@H](C)C(=O)N(C)[C@@H](CC(C)C)C(=O)N(C)[C@@H](CC(C)C)C(=O)N(C)C(C(C)C)C(=O)N(C)[C@@H]([C@H](O)[C@H](C)C/C=C/C)C(=O)N[C@@H](CC)C(=O)N(C)CC(=O)N1C (single isomer, unassigned)

SMILES	Relative IC50 [1]	Relative IC50 [2]	Relative IC50 [3]
C/C=C/C[C@@H](C)[C@@H](O)[C@H]1C(=O)N[C@@H](CC)C(=O)N(C)CC(=O)N(C)[C@@H](C(C)C)C(=O)N[C@@H](C(C)C)C(=O)N(C)[C@@H](CC(C)C)C(=O)N[C@@H](C)C(=O)N[C@H](C)C(=O)N(C)[C@@H](CC(C)C)C(=O)N(C)[C@@H](CC(C)C)C(=O)N(C)C(C(C)C)C(=O)N1C (single isomer, unassigned)	0.5	130	2500

Source: ChEMBL document CHEMBL1150037, “Calcineurin has a very tight-binding pocket for the side chain of residue 4 of cyclosporin” (1994)
